According to PubChem BioAssay (NCI):
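Step 1: Grow cells in 96-well plates. Step 2: Expose to compound for 48 hours at 5 concentrations. Step 3: Interpolate endpoints linearly; if unreached, use highest concentration. At the TGI there is no net growth.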

Legend:
Assay in all cases: NCI tumour cell line growth inhibition, 48 h
NCI-H460 lung = test system: NCI-H460 lung
NCI-H23 lung = test system: NCI-H23 lung
SN12C renal = test system: SN12C renal
786-0 renal = test system: 786-0 renal
MDA-MB-435 = test system: MDA-MB-435
CCRF-CEM leukemia = test system: CCRF-CEM leukemia
A549 NSCLC = test system: A549 NSCLC

Row | SMILES | TGI (NCI-H460 lung) [µM] | TGI (NCI-H23 lung) [µM] | TGI (SN12C renal) [µM] | TGI (786-0 renal) [µM] | TGI (MDA-MB-435) [µM] | TGI (CCRF-CEM leukemia) [µM] | TGI (A549 NSCLC) [µM]
1 | C=C(Br)CN(C(C)=O)C1CCCCC1 | > 100 | > 100 | > 100 | > 100 | > 100 | > 100 | > 100
2 | CC/C=C/C(=O)CC(O)(C(F)(F)F)C(F)(F)F | > 100 | > 100 | > 100 | > 100 | > 100 | > 100 | > 100
3 | CN(C)CCCCN1c2ccccc2Sc2cc(N=[N+]=[N-])ccc21 | 3.83 | 22.4 | 12.1 | 3.08 | 3.09 | 4.11 | 3.37
4 | CN(/N=C/c1ccccn1)C1=NCCCCN1 | > 100 | > 100 |  | > 100 | > 100 | > 100 | > 100
5 | O=c1c2cccnc2cc(-c2ccccc2)n1CCO | > 100 | > 100 | > 100 | > 100 | > 100 | > 100 | > 100
6 | COc1ccc(/C=C2\CCCCCC2=O)cc1 | > 100 | > 100 | > 100 | > 100 | > 100 | > 100 | > 100
7 | O=C1c2c(ccc3c2CCC3)CC12Cc1cc3c(cc1C2)CCC3 | > 100 | > 100 | > 100 | > 100 | > 100 | > 100 | > 100
8 | Nc1cn(Cc2ccccc2)c2nc(/C=C3/C=CC=CC3=O)c(O)n12 | > 100 | > 100 | > 100 | > 100 | > 100 | > 100 | > 100
9 | O=C(CCc1ccc(O)cc1)NCCc1cccc(OCc2ccccc2)c1 | 66.6 | 71.6 | > 100 | > 100 | 38.6 | 20.7 | > 100
10 | COC(=O)C1=C(\c2ccccc2)c2ccccc2C(=O)N(C2CCCCC2)/C=C\1 | 65.7 | > 100 | > 100 | > 100 | 45.1 | 75.5 | > 100
11 | NC(N)=N/N=C/c1c(-c2ccc([N+](=O)[O-])cc2)nc2n1CCS2 | 32.3 | 31.3 | 19.2 | 20.9 | 43.5 | 11.8 | 36.2
12 | CCCCCCCCC/C=C1\CC(CO)(COC(=O)C2CCCCC2)OC1=O (stereo unspecified) | 57.1 | 47 | 35.2 | 32.1 | 34.4 | 63.2 | 48.3
13 | Cc1cccc(C)c1NC(=S)NC=C(C(N)=O)C(N)=O | > 100 | > 100 | > 100 | > 100 | > 100 | > 100 | > 100
14 | O=C1CCC2CCC1C2 (stereo unspecified) | > 100 | > 100 | > 100 | > 100 | > 100 | > 100 | > 100
15 | COC(=O)C1=Cc2cc(OC)c(O)cc2[C@@H](c2ccc(O)c(OC)c2)[C@@H]1C(=O)OC | > 100 | > 100 | > 100 | > 100 | > 100 | > 100 | > 100
16 | N#Cc1sc2c(c1OC(=O)c1cccs1)c(=O)n(-c1ccccc1)c(=S)n2-c1ccccc1 | > 100 | 93.5 | 47.2 | 90.6 | > 100 |  | > 100
17 | COc1cccc2c(Nc3ccc(S(=O)(=O)NC(C)=O)cc3)c3ccc([N+](=O)[O-])cc3nc12 | > 100 | > 100 | > 100 | > 100 | > 65.2 | > 100 | > 100
18 | O=C(O)c1ccc2c(c1)CC1(C2)Cc2ccccc2C1=O (stereo unspecified) | > 100 | > 100 | > 100 | > 100 | > 100 | > 100 | > 100
19 | CC(=O)OCC1OC(N2C(C)=C(C(C)=O)C(c3ccco3)C(C#N)=C2S)C(OC(C)=O)C(OC(C)=O)C1OC(C)=O (stereo unspecified) | > 100 | > 100 | > 100 | > 100 | > 100 | > 100 | > 100

Row | SMILES | TGI (NCI-H460 lung) [µM] | TGI (NCI-H23 lung) [µM] | TGI (SN12C renal) [µM] | TGI (786-0 renal) [µM] | TGI (MDA-MB-435) [µM] | TGI (CCRF-CEM leukemia) [µM] | TGI (A549 NSCLC) [µM]
20 | CC(=O)N(CCc1ccccc1)C(C#N)c1ccc(OCCCCCCCCCCOc2ccc(C(C#N)N(CCc3ccccc3)C(C)=O)cc2)cc1 (stereo unspecified) | > 100 | > 100 | > 100 | 50 | > 100 | > 100 | > 100
21 | N#Cc1c(Cl)/c(=C/O)c(=O)n2c1nc1ccccc12 | > 100 | > 100 | > 100 | > 100 | > 100 | > 100 | > 100
22 | CCOC(=O)c1c(-c2ccc(O)c(OC)c2)c(C#N)c(=S)n(C2OC(COC(C)=O)C(OC(C)=O)C(OC(C)=O)C2OC(C)=O)c1-c1ccccc1 (stereo unspecified) | > 100 | > 100 | > 100 | > 100 | > 100 | > 100 | > 100
23 | C(=NCc1ccccc1)c1ccccc1-c1ccccc1C=NCc1ccccc1 | > 10 | > 10 | > 10 | > 10 | > 10 | > 10 | > 10
24 | CN(C)C(=O)Nc1cc2c3c(c1)CCCN3CCC2 | > 10 | > 10 | > 10 | > 10 | > 10 | > 10 | > 10
25 | O=c1oc2ccccc2c(O)c1C(c1ccc(/C=C/c2ccccc2)cc1)c1c(O)c2ccccc2oc1=O | 55.9 | > 100 | 53.9 | 63.8 | 80 | > 100 | 
26 | COc1ccc(C2=C(N)c3c(OC)cccc3C2=O)cc1 | > 100 | > 100 | > 100 | > 100 | > 100 | > 100 | 
27 | CCC1=CC2Cc3nc4cc(Cl)ccc4c(N)c3C(C1)C2 (stereo unspecified) | 18.5 | 17.3 | 28.2 | 11.9 | 8.74 | 15.9 | 30.8
28 | COC1=C(N2CC2)C(=O)c2nc3n(c2C1=O)CCC3 | 2.42 | 2.34 | 2.95 | 1.03 | 3.32 | 1.33 | 6.47
29 | CC1(C)CCCCCCC2OC2CCCCCC(C)(C)C1=O (stereo unspecified) | > 100 | > 100 | > 64 | > 100 | > 100 | > 69.4 | > 100
30 | O=c1cc(CBr)c2ccc(O)cc2o1 | > 100 | > 100 | > 100 | > 100 | > 100 | > 100 | > 100
31 | COc1cc(C2c3cc4c(cc3OC(Nc3ccccc3)C2C)OCO4)cc(OC)c1OC (stereo unspecified) | > 100 | > 100 | > 100 | > 100 | 0.527 | > 19.9 | > 100
32 | CCOC(=O)C(NC(=O)CC(C)C)(Nc1ccc(S(=O)(=O)Nc2nc(C)cc(C)n2)cc1)C(F)(F)F (stereo unspecified) | > 100 | > 100 | > 100 | > 100 | > 100 | > 100 | > 100
33 | O=c1c2cc([N+](=O)[O-])ccc2n2n1Cc1ccccc1C2 | > 100 | > 100 | > 100 | > 100 | > 100 | > 100 | > 100
34 | C[C@H]1C[C@H](C)c2ccccc2N(C)C1=Nc1ccccc1 | 64.4 | 50 | > 100 | 64 | 52.8 |  | > 100
35 | O=C1c2ccccc2-c2ccc(N=Nc3c(O)ccc4ccccc34)cc21 |  | > 100 | > 100 | > 100 | > 100 | 35 | > 100
36 | COc1cc(NCc2ccc3nc(OC)c(OC)nc3c2)cc(OC)c1OC | > 100 | > 100 | > 100 | > 100 | > 100 | > 100 | > 100
37 | CCCCC(=O)NC1(c2cc3ccccc3s2)CCCCC1 | > 100 | > 100 | > 100 | > 100 | > 100 | > 100 | > 100
38 | O=C(C1C(c2ccccc2)N1C(c1ccccc1)c1ccccc1)C1C(c2ccccc2)N1C(c1ccccc1)c1ccccc1 (stereo unspecified) | 29.5 |  | 46.9 | 48.2 | > 100 | 22.9 | > 100

Row | SMILES | TGI (NCI-H460 lung) [µM] | TGI (NCI-H23 lung) [µM] | TGI (SN12C renal) [µM] | TGI (786-0 renal) [µM] | TGI (MDA-MB-435) [µM] | TGI (CCRF-CEM leukemia) [µM] | TGI (A549 NSCLC) [µM]
39 | COC(=O)c1ccccc1/C=C1\Cc2cc(C)cc(C)c2C1=O | > 100 | > 100 | > 100 | > 100 |  | > 100 | > 100
40 | N#CC(Nc1ccccc1)c1ccc(C(C#N)Nc2ccccc2)cc1 (stereo unspecified) | > 100 | > 100 | > 100 | > 100 | > 100 | 48 | > 100
41 | COC(=O)C(=O)C(C(=O)C(=O)Nc1ccccc1C(C)=O)c1nc2ccc(C(=O)c3ccccc3)cc2[nH]c1=O (stereo unspecified) | > 100 | > 100 | > 100 | > 100 |  |  | > 100
42 | O=c1[nH]nc(Cc2ccccc2)n1/N=C/c1ccccc1Cl | > 100 | > 100 | > 100 | > 100 | > 100 |  | > 100
43 | COc1ccc2c(c1)CCc1[nH]c3ccccc3c1CCCC2 |  | > 10 | > 10 | > 10 | > 10 | > 10 | > 10
44 | CN(C(=O)Cc1ccc(Cl)c(Cl)c1)[C@@H]1CCCC[C@H]1[N+]1(C)CC=CC1 |  | > 100 | > 100 | > 100 | > 100 |  | > 100
45 | CCCCCC(CO)C(O)(C(F)(F)F)C(F)(F)F (stereo unspecified) | > 10 | > 10 | > 10 | > 10 | > 10 |  | > 10
46 | COc1ccc(C(c2c[nH]c3ccc(Br)cc23)c2c[nH]c3ccc(Br)cc23)cc1 | 0.361 | 1.47 |  | 1.07 | 0.42 | 0.436 | 1.22
47 | COc1ccc2c(c1)N=C1CSC(c3cccc(Br)c3)N1C2 (stereo unspecified) | 23.7 | 45.3 | 39.7 | 35.1 | 34.5 |  | 48.1
48 | C/C(=N/O)c1cccc(Nc2nc3ccc(Cl)cc3c3[nH]c4ccccc4c23)c1 | 4.29 | 4.24 | 9.53 | 5.22 | 3.99 |  | 5.13
49 | Cc1ccc(SCC(CF)OCn2cc(F)c(=O)[nH]c2=O)cc1 (stereo unspecified) | > 100 | > 100 |  | > 100 | > 100 | > 100 | > 100
50 | COc1cc(NP(=O)(Oc2ccccc2)Oc2ccccc2)ccc1Nc1c2ccccc2nc2c1[nH]c1ccccc12 | 29.2 | 12.3 | 2.09 | 1.58 | 21.5 |  | 2.22
51 | CSC1=N/C(=C\c2ccco2)C(=O)N1CN1CCCCC1 |  | > 100 | > 100 | > 100 | > 100 |  | > 100
52 | CCN(CC)C(=S)SNCc1ccc(S(N)(=O)=O)cc1 | 34.4 | 44.3 | 28.9 | 28 | > 50.9 |  | 26.3
53 | [N-]=[NH+]CC(=O)OC(COCc1ccccc1)COCc1ccccc1 | > 100 | > 100 | > 100 | > 100 | > 100 | > 100 | 
54 | O=C(C[n+]1ccccc1)N=N/C(C(=O)Nc1c(Cl)c(O)c2ccccc2c1O)=C1/C(=O)Oc2cc(O)ccc2C1=O | 8.36 | 17.3 | 15.1 | > 100 |  | > 100 | 11
55 | NC1=NN(c2ccccc2)C2(O)c3ccncc3C3=NN(c4ccccc4)C(=O)C132 (stereo unspecified) | > 100 | > 100 | > 100 | > 100 | > 100 |  | > 100
56 | NC(=O)C(c1ccccc1)N1OC2C(=O)N(c3cccc4ccccc34)C(=O)C2C1c1c2ccccc2c(Cl)c2ccccc12 (stereo unspecified) | 18.6 | 26 | 16.3 | 21.4 | 22.7 |  | > 50
57 | COc1cc(C2C3=C(COC3=O)Oc3cc4c(cc32)OCO4)ccc1OC(C)=O (stereo unspecified) | > 100 | > 100 | > 100 | > 100 |  | > 49.6 | > 100
